Legend:
kappa opioid receptor [1] = molecular target: T1, kappa opioid receptor (Mus musculus, UniProt P33534); experiment: Ex-vivo KOR agonistic activity, electrically stimulated mouse vas deferens (MVD) model
T1 construct: from tissue; host or cells: mouse vas deferens (male Swiss Albino mice)
Protocol: a) Ex-Vivo KOR Agonistic Activity Testing, Using Electrically Stimulated Mouse Vas Deferens (MVD) Model:
Ex-vivo, the kappa opioid receptor agonistic activity of test compounds were tested on the electrically stimulated mouse vas deferens (MVD) preparations (Henderson et al., Br. J. Pharmacol., 46, 764-766, 1972; Portoghese et al., Life Sci. 36, 801-805, 1985) and IC50 were determined. In general, vas deferentia were taken from male Swiss Albino mice (30-40 g) and suspended in 8 ml organ baths, at 31° C., containing modified Krebs-Henseleit solution, without magnesium sulphate. Each vas deferens was equilibrated for 45 min at 2.6 mN tension and then stimulated at supramaximal voltage with five 1 ms pulses, at a frequency of 0.1 Hz. Concentration-response curves were determined by cumulative dosing. Inhibitory Concentration, 50% (IC50) values were determined by Sigmoidal dose-response (variable slope) equation, using Prizm v 6.01. The kappa opioid receptor specificity was determined by rightward shift in concentration-response curves in presence of 1 nM norbinaltorphimine (norBNI), a selective kappa opioid receptor antagonist.

kappa opioid receptor [2] = molecular target: T2, kappa opioid receptor (Homo sapiens, UniProt P41145); experiment: Invitro KOR agonistic activity, cAMP based functional assay; format: cell-based
T2 construct: grown in complete Ham's F-12 medium
T2 sequence (P41145 whole entry): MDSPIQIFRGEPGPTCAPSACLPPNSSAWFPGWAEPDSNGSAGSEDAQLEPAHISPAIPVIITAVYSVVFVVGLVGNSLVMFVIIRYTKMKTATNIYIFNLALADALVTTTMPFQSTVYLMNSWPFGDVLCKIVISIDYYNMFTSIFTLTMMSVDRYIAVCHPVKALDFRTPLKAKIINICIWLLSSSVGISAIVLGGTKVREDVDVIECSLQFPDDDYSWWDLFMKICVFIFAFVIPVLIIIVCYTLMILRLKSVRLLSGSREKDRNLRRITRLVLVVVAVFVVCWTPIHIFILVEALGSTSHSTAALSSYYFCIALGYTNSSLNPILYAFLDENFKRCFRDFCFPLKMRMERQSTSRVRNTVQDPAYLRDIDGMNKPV

ICR mice [3] = experiment: Acetic acid-induced writhing model; format: in vivo; conditions: Mus musculus, 0.25 h, acetic acid induced pain model, oral or i.v. administration, writhes for 15 min, read-out: In-vivo ED50
Protocol: (§1) All the animal experiments were carried out in ICR mice, bred in-house. Animals were housed in groups of 6 animals per cage, for a week, in order to habituate them to vivarium conditions (25±4° C., 60-65% relative humidity, 12:12 h light: dark cycle, with lights on at 7.30 am). All the animal experiments were carried out according to the internationally valid guidelines following approval by the ‘Zydus Research Center animal ethical committee’.
Following oral or i.v. administration of test compounds, mice are rested for 5 min before i.p. injection with 10 ml/kg of 0.6% v/v acetic acid in normal saline. […] A writhe is defined as a constriction of the abdominal area, often with extension of the hind legs. Percentage maximum possible effect (MPE) was calculated as below:
% MPE=100−[(No. of writhes in treated mice/No. of writhes in vehicle treated mice)]×100
ED50 dose is determined using GraphPad Prism.

ICR mice [4] = experiment: Assessment of CNS effects (spontaneous locomotion, sedation, catalepsy), threshold dose; format: in vivo; conditions: lowest dose which shows pharmacodynamic effect (locomotion, sedation, catalepsy), oral or i.v.
Protocol: as §1
Assessment of CNS Effects of Test Compounds
Test compounds were dissolved in normal saline injected by oral or i.v., routes in ICR mice tail vein. […] The dose is scaled down or up if pharmacodynamic effect is present or absent respectively.

T1 sequence (P33534 whole entry): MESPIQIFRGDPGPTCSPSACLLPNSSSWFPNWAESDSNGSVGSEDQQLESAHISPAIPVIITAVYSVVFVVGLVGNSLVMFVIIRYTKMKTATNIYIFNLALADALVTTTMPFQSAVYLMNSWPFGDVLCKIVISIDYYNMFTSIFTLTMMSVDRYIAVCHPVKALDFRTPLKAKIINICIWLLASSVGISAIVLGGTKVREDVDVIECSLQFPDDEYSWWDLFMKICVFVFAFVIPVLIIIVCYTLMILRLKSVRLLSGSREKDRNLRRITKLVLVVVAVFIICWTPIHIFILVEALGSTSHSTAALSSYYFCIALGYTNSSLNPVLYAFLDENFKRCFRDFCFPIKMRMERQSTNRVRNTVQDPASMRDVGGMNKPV

Question: `CN(C(=O)COc1ccc(NS(=O)(=O)N(C)C)c2c1CCCN2)[C@H](CN1CC[C@H](O)C1)c1ccccc1` [Compound 32, 2-((8-((N,N-dimethylsulfamoyl)amino)-1,2,3,4-tetrahydroquinolin-5-yl)oxy)-N-((S)-2-((S)-3-hydroxypyrrolidin-1-yl)-1-phenylethyl)-N-methylacetamide] was tested. Which IC50 (kappa opioid receptor [1]) did it give?
Answer: 0.49 nM

Question: What about the EC50 (kappa opioid receptor [2]) of the same compound?
Answer: 0.013 nM

Question: And the ED50 (ICR mice [3])?
Answer: 4.7 mg/kg

Question: And the “CNS TD” value (ICR mice [4])?
Answer: 100 mg/kg

Question: What does the source list for `CN(C(=O)COc1ccc(NS(C)(=O)=O)c2ncccc12)[C@H](CN1CC[C@H](O)C1)c1cccc(N)c1` [Compound 43, N-((S)-1-(3-aminophenyl)-2-((S)-3-hydroxypyrrolidin-1-yl)ethyl)-N-methyl-2-((8-(methylsulfonamido)quinolin-5-yl)oxy) acetamide]?
Answer: IC50 (kappa opioid receptor [1]): 1.6 nM; EC50 (kappa opioid receptor [2]): 0.006 nM; ED50 (ICR mice [3]): 2.1 mg/kg; CNS TD (ICR mice [4]): 30 mg/kg

Question: For `CN(C(=O)COc1ccc(NS(C)(=O)=O)c2ncccc12)[C@H](CN1CC[C@H](O)C1)c1cccc(NS(C)(=O)=O)c1` [Compound 44], which IC50 (kappa opioid receptor [1]) is on record?
Answer: 5.4 nM

Question: And the EC50 (kappa opioid receptor [2])?
Answer: 0.036 nM

Question: And the ED50 (ICR mice [3])?
Answer: 2.3 mg/kg

Question: What about the “CNS TD” value (ICR mice [4]) of the same compound?
Answer: 10 mg/kg

Question: With `CN(C(=O)COc1ccc(NS(C)(=O)=O)c2ncccc12)[C@H](CN1CC[C@H](O)C1)c1cccc(O)c1` [Compound 48, N-((S)-1-(3-hydroxyphenyl)-2-((S)-3-hydroxypyrrolidin-1-yl)ethyl)-N-methyl-2-((8-(methylsulfonamido)quinolin-5-yl)oxy) acetamide] as the compound, how does the IC50 (kappa opioid receptor [1]) read?
Answer: 1.3 nM

Question: What about the EC50 (kappa opioid receptor [2]) of the same compound?
Answer: 0.021 nM

Question: What about the ED50 (ICR mice [3]) of the same compound?
Answer: 3.1 mg/kg

Question: What about the “CNS TD” value (ICR mice [4]) of the same compound?
Answer: 30 mg/kg

Question: How did the IC50 (kappa opioid receptor [1]) turn out when `CN(C(=O)COc1ccc2c(c1)OCO2)[C@H](CN1CC[C@H](O)C1)c1cccc(NS(C)(=O)=O)c1` [Compound 57, 2-(benzo[d][1,3]dioxol-5-yloxy)-N-((S)-2-((S)-3-hydroxypyrrolidin-1-yl)-1-(3-(methylsulfonamido)phenyl)ethyl)-N-methylacetamide] was run?
Answer: 27 nM

Question: What about the EC50 (kappa opioid receptor [2]) of the same compound?
Answer: 0.961 nM

Question: What about the ED50 (ICR mice [3]) of the same compound?
Answer: 1.9 mg/kg

Question: And the “CNS TD” value (ICR mice [4])?
Answer: 60 mg/kg

Reference: patent US20170007610A1, “NOVEL HETEROBICYCLIC COMPOUNDS AS KAPPA OPIOID AGONISTS” (priority 2014, published 2017)
